Experimental data as given in paper PMC9019904, “AD Informer Set: Chemical tools to facilitate Alzheimer's disease drug discovery” (Alzheimer's & Dementia : Translational Research & Clinical …, 2022).
In brackets after ≈: the same amount, converted by molar mass.

Key:
cellular system = conditions: published cellular activity at 10 μM; cited from earlier work
[1] = system: HMC3 (human microglia) cell line; assay: pHrodo-myelin phagocytosis/cell viability high content imaging assay: phagocytosis signal; type: cell-based
How it was run: (§1)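 Cells receive pHrodo-myelin, then are imaged at high content approximately 22 hours later. Phagocytosis signal and viability are captured in the same run. Three measurements are extracted per well.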

[2] = system: BV2 (mouse microglia) cell line; assay: as above; type: cell-based
How it was run: as §1

[3] = Kinetic solubility in aqueous buffer pH 7.4 by total chemiluminescent nitrogen determination (Analiza); conditions: aqueous buffer, pH 7.4, aqueous buffer, kinetic from dmso stock
[4] = system: HMC3 (human microglia) cell line; assay: pHrodo-myelin phagocytosis/cell viability high content imaging assay: viability (cell count, nuclear area, nuclear intensity)
How it was run: (§2)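 BV2 mouse and HMC3 human microglia were treated with compounds at 10 μM for 48 h, with pHrodo-myelin present for the last 20 h. Viability was imaged as total cell count per well and mean nuclear intensity per cell. Values are means of duplicates, normalized to untreated wells as % control.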

[5] = system: BV2 (mouse microglia) cell line; assay: as above
How it was run: as §2

[6] = HMC3, 10 μM, cell count <70% control
[7] = BV2, 10 μM, cell count <70% control

| solubility kinetic [3] [µM] | Structure (SMILES) | Reported as cell active (<10 μM) (cellular system) | Inhibition of human microglial phagocytosis at 10 μM (<70% control) ([1]; HMC3, 10 μM) | Inhibition of mouse microglial phagocytosis at 10 μM (<70% control) ([2]; BV2, 10 μM) | also measured |
| --- | --- | --- | --- | --- | --- |
|  | Cc1cc2c(cc1C(=O)c1ccc(C(=O)O)cc1)C(C)(C)CCC2(C)C [LG-100064] | Y (Published data supports that the compound is active in a cellular system when dosed at 10 μM (Y/N)) |  |  |  |
|  | CC(C)(C(=O)O)c1ccc(C(O)CCCN2CCC(C(O)(c3ccccc3)c3ccccc3)CC2)cc1 (stereo not shown) [Fexofenadine] | Y (Published data supports that the compound is active in a cellular system when dosed at 10 μM (Y/N)) |  |  |  |
|  | C=C(c1ccc(C(=O)O)cc1)c1cc2c(cc1C)C(C)(C)CCC2(C)C [Bexarotene] | Y (Published data supports that the compound is active in a cellular system when dosed at 10 μM (Y/N)) |  |  |  |
|  | CCCCCOc1cc2c(cc1-c1cc(/C=C/C(=O)O)ccc1O)C(C)(C)CCC2(C)C [UVI 3003] | Y (Published data supports that the compound is active in a cellular system when dosed at 10 μM (Y/N)) |  |  |  |
| 3.8 (≈ 1.98 µg/mL) | Cc1cc(OCc2nnc(SC3CCCC3)n2-c2cccnc2)ccc1-c1ccc(S(C)(=O)=O)cc1 [NMS-873] |  | Y (The compound was found to inhibit phagocytosis (response threshold: <70% control) when human immortalized microglial cells were dosed at 10 μM (Y: yes)) | Y (The compound was found to inhibit phagocytosis (response threshold: <70% control) when murine immortalized microglial cells were dosed at 10 μM (Y: yes)) | Human microglial cytotoxicity at 10 μM (<70% control) [4, 6]: Y (The compound was found to be cytotoxic (cell count threshold: <70% control) when human immortalized microglial cells were dosed at 10 μM (Y: yes)); Mouse microglial cytotoxicity at 10 μM (<70% control) [5, 7]: Y (The compound was found to be cytotoxic (cell count threshold: <70% control) when murine immortalized microglial cells were dosed at 10 μM (Y: yes)) |
|  | CNC(=O)c1cccc(-c2ccc3c(N4CCOC[C@@H]4C)nc(N4CCOC[C@@H]4C)nc3n2)c1 [Vistusertib] | Y (Published data supports that the compound is active in a cellular system when dosed at 10 μM (Y/N)) |  |  | Stimulation of mouse microglial phagocytosis at 10 μM (>150% control) ([2]; BV2 cells, 10 μM): Y (The compound was found to stimulate phagocytosis (response threshold: >150% control) when murine immortalized microglial cells were dosed at 10 μM (Y: yes)); Mouse microglial cytotoxicity at 10 μM (<70% control) ([5]; BV2 cells, 10 μM, cell count <70% control): Y (The compound was found to be cytotoxic (cell count threshold: <70% control) when murine immortalized microglial cells were dosed at 10 μM (Y: yes)) |
| 3.9 (≈ 1.8 µg/mL) | Fc1ccc(C(CCCNCC2CCc3[nH]c4ccc(F)cc4c3C2)c2ccc(F)cc2)cc1 (stereo not shown) [MSC1094308] |  | Y (The compound was found to inhibit phagocytosis (response threshold: <70% control) when human immortalized microglial cells were dosed at 10 μM (Y: yes)) | Y (The compound was found to inhibit phagocytosis (response threshold: <70% control) when murine immortalized microglial cells were dosed at 10 μM (Y: yes)) | Human microglial cytotoxicity at 10 μM (<70% control) [4, 6]: Y (The compound was found to be cytotoxic (cell count threshold: <70% control) when human immortalized microglial cells were dosed at 10 μM (Y: yes)); Mouse microglial cytotoxicity at 10 μM (<70% control) [5, 7]: Y (The compound was found to be cytotoxic (cell count threshold: <70% control) when murine immortalized microglial cells were dosed at 10 μM (Y: yes)) |
| < 0.4 | COc1cccc2c(NCc3ccccc3)nc(-n3c(N)nc4ccccc43)nc12 [ML 240] |  | Y (The compound was found to inhibit phagocytosis (response threshold: <70% control) when human immortalized microglial cells were dosed at 10 μM (Y: yes)) | Y (The compound was found to inhibit phagocytosis (response threshold: <70% control) when murine immortalized microglial cells were dosed at 10 μM (Y: yes)) | Human microglial cytotoxicity at 10 μM (<70% control) [4, 6]: Y (The compound was found to be cytotoxic (cell count threshold: <70% control) when human immortalized microglial cells were dosed at 10 μM (Y: yes)); Mouse microglial cytotoxicity at 10 μM (<70% control) [5, 7]: Y (The compound was found to be cytotoxic (cell count threshold: <70% control) when murine immortalized microglial cells were dosed at 10 μM (Y: yes)) |
| 3.8 (≈ 1.68 µg/mL) | Cn1nccc1Nc1nccc(-c2ccn([C@H](CO)c3ccc(Cl)c(F)c3)c(=O)c2)n1 [Ravoxertinib (GDC0994)] |  |  |  | Inhibition of human microglial phagocytosis at 10 μM (<70% control) ([1]; 10 μM, HMC3): Y (The compound was found to inhibit phagocytosis (response threshold: <70% control) when human immortalized microglial cells were dosed at 10 μM (Y: yes)); Inhibition of mouse microglial phagocytosis at 10 μM (<70% control) ([2]; 10 μM, BV2): Y (The compound was found to inhibit phagocytosis (response threshold: <70% control) when murine immortalized microglial cells were dosed at 10 μM (Y: yes)); Human microglial cytotoxicity at 10 μM (<70% control) ([4]; 10 μM, HMC3): Y (The compound was found to be cytotoxic (cell count threshold: <70% control) when human immortalized microglial cells were dosed at 10 μM (Y: yes)); Mouse microglial cytotoxicity at 10 μM (<70% control) ([5]; 10 μM, BV2): Y (The compound was found to be cytotoxic (cell count threshold: <70% control) when murine immortalized microglial cells were dosed at 10 μM (Y: yes)) |
|  | Cc1cc2c(cc1-c1cc(/C=C\C(=O)O)ccc1O)C(C)(C)CCC2(C)C [CD3254] | Y (Published data supports that the compound is active in a cellular system when dosed at 10 μM (Y/N)) |  |  |  |
| 11 (≈ 5.35 µg/mL) | C=CC(=O)Nc1cc2c(Nc3ccc(F)c(Cl)c3)ncnc2cc1OCCCN1CCOCC1 [Canertinib] |  | Y (The compound was found to inhibit phagocytosis (response threshold: <70% control) when human immortalized microglial cells were dosed at 10 μM (Y: yes)) | Y (The compound was found to inhibit phagocytosis (response threshold: <70% control) when murine immortalized microglial cells were dosed at 10 μM (Y: yes)) | Human microglial cytotoxicity at 10 μM (<70% control) ([4]; HMC3, 10 μM): Y (The compound was found to be cytotoxic (cell count threshold: <70% control) when human immortalized microglial cells were dosed at 10 μM (Y: yes)); Mouse microglial cytotoxicity at 10 μM (<70% control) ([5]; BV2, 10 μM): Y (The compound was found to be cytotoxic (cell count threshold: <70% control) when murine immortalized microglial cells were dosed at 10 μM (Y: yes)) |
|  | O=S(=O)(NC1CCNCC1)c1cc(S(=O)(=O)c2ccccc2)ccc1C(F)(F)F [WAY-316606] | Y (Published data supports that the compound is active in a cellular system when dosed at 10 μM (Y/N)) |  |  | Stimulation of mouse microglial phagocytosis at 10 μM (>150% control) ([2]; BV2 cells, 10 μM): Y (The compound was found to stimulate phagocytosis (response threshold: >150% control) when murine immortalized microglial cells were dosed at 10 μM (Y: yes)) |
| 18.4 (≈ 8.32 µg/mL) | O=C1C=C(NCCc2cc(Br)c(O)c(Br)c2)C(=O)c2ncccc21 [NSC668394] |  | Y (The compound was found to inhibit phagocytosis (response threshold: <70% control) when human immortalized microglial cells were dosed at 10 μM (Y: yes)) |  | Stimulation of mouse microglial phagocytosis at 10 μM (>150% control) ([2]; BV2, 10 μM): Y (The compound was found to stimulate phagocytosis (response threshold: >150% control) when murine immortalized microglial cells were dosed at 10 μM (Y: yes)); Human microglial cytotoxicity at 10 μM (<70% control) ([4]; HMC3, 10 μM): Y (The compound was found to be cytotoxic (cell count threshold: <70% control) when human immortalized microglial cells were dosed at 10 μM (Y: yes)); Mouse microglial cytotoxicity at 10 μM (<70% control) ([5]; BV2, 10 μM): Y (The compound was found to be cytotoxic (cell count threshold: <70% control) when murine immortalized microglial cells were dosed at 10 μM (Y: yes)) |
